Test results as given in patent US20010041670A1, “Thrombospondin-binding region of histidine-rich glycoprotein and method of use” (priority 1999, published 2001).

Legend:
[1] = target: T1, 125I-TSP-1 binding to HRGP (Homo sapiens, UniProt P07996); experiment: Solid phase binding assay, competition with CD36 fusion proteins; details: increasing concentrations of fusion protein
T1 construct: TSP-1 was purified from human platelet releasate; from tissue; host or cells: TSP-1 from human platelet releasate; HRGP from human plasma
Experimental: Solid phase binding assays were performed as described (18). Briefly, HRGP in carbonate buffer was immobilized on 96-well strips (Immulon-4 Remove-a-well, Dynatech Laboratories Inc., Burlington, Mass., USA) overnight at 4° C. After blocking with 1% BSA, ^125I-TSP-1 was incubated in the presence of varying concentrations of CD36-FP in triplicate, and bound radioactivity was quantified on a gamma counter. Non-specific binding was determined by carrying out binding in the presence of excess unlabeled ligand.
TSP-1 binding to HRGP: competition with CD36.

binding of HRGP to TSP-1 = target: T2, binding of HRGP to TSP-1 (Homo sapiens, UniProt P04196); experiment: ELISA of HRGP binding to immobilized TSP-1 in presence of peptides; details: for inhibition of binding of HRGP to immobilized TSP-1: peptide 50 μM
T2 construct: from tissue; host or cells: HRGP from human plasma; TSP-1 from human platelet releasate
T2 sequence (P04196 19-525): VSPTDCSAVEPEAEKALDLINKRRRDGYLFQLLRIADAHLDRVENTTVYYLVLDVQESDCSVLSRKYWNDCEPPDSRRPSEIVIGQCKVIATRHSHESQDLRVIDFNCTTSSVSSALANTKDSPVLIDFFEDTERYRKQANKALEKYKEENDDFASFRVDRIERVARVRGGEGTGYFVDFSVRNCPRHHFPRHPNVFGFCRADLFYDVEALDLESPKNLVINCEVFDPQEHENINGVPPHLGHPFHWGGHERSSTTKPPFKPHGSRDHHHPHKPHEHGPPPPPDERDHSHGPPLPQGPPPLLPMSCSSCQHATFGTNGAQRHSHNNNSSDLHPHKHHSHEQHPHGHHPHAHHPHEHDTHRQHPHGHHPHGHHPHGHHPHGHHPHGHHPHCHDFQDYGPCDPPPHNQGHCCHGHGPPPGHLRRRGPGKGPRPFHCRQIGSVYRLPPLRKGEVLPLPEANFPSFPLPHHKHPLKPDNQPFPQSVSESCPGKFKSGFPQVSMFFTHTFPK
Experimental: (§1) Enzyme-linked immunosorbent assays (ELISA) were performed as described (6). Briefly, TSP-1 (4μg/ml) in coating buffer (0.5M sodium carbonate, pH 9.6) was applied to microtiter plates (Becton Dickinson, Lincoln Park, N.J., USA) for 3 hours at 37° C. After washing with wash buffer (0.05% Tween in 20 mM Tris, 150mM NaCl, pH 7.5), and blocking for 1 hour at 37° C. with 1% BSA in Tris-Tween, HRGP in varying amounts in the presence and absence of peptide was added for 18h at 4° C. After washing, alkaline phosphatase-conjugated anti-HRGP or nonimmune rabbit Fab'2 was added for 3h at 37° C., after which p-nitrophenyl phosphate substrate was added and optical density (OD) at 405 nm was read in a microplate reader (Molecular Devices, Menlo Park, Calif., USA).
(§2) HRGP or plasminogen binding to TSP-1 immobilized on plastic wells was measured by enzyme-linked immunosorbent assay (ELISA) as described above, using an alkaline phosphatase-conjugated anti-HRGP antibody and p-nitrophenyl phosphate substrate.
(§3) As an additional control, the binding of plasminogen to TSP-1 was measured.
Varying amounts of HRGP were added alone or in the presence of increasing concentrations of the peptide CSVTCG to TSP-1 coated wells. Binding was measured by ELISA as described above.

C57B1/6 mice = experiment: In vivo subcutaneous Matrigel plug assay
Experimental: In vivo subcutaneous Matrigel plug assays were performed as described (23). Briefly, 500 μl of Matrigel mixed with proteins or growth factors was injected subcutaneously near the abdominal midline of C57B1/6 mice. Gels were removed after 10 days, fixed in 1% paraformaldehyde, embedded in paraffin, sectioned, and stained with hematoxylin and eosin. Immunohistochemistry was performed on unstained sections using an anti-human von Willebrand factor (vWF) IgG (Dako, Glostrup, Denmark) or isotype-matched control (Sigma) and a biotin-streptavidin-peroxidase antibody and development system (Vector Laboratories, Burlingame, Calif.) as described (24) and counterstained with Mayer's hematoxylin (ImmunoGenex, San Ramon, Calif., USA). After scanning, the degree of angiogenesis was determined by counts of vWF-positive blood vessels using Scion Image. For breast tissue, frozen sections of freshly obtained human breast carcinoma were incubated with rabbit antibody to HRGP or CSVTCG or murine monoclonal antibody to TSP, or isotype-matched controls (Sigma), and developed as above. These studies were approved by the Institutional Animal Use Committee.
Matrigel mixed was injected subcutaneously into the midline of mice and resulting plugs were harvested after 10 days, fixed, and paraffin embedded, sectioned, stained with. hematoxylin and eosin, and photographed at 200× magnification. […]

[2] = tested on: Human dermal microvascular EC (HMVEC); experiment: Tube formation assay on Matrigel; assay type: cell-based; details: Matrigel
Experimental: Tube Formation Assay. Early passage (P2 or P3) HMVEC in 0.2% MVGS were grown on 150 μl of Matrigel (Becton Dickinson, Bedford, Mass., USA) at 3×10^4 cells per well of 48-well plates. Reagents were added and cells were incubated at 5% CO2, 37° C. for 24 hours then photographed. Images were scanned and number of branched structures was counted using Scion Image software (Frederick, Md., USA).
HRGP inhibits the anti-angiogenic effect of TSP-1 in vitro. Microvascular EC were grown on Matrigel under low serum concentrations (0.2%) in the presence of bFGF (2 ng/ml), conditions which are known to induce tube formation. […] The anti-angiogenic activity of TSP-1 was abolished by the addition of HRGP (15 nM), which restored the ability of the EC to form tubular structures. (c).

[3] = tested on: Human dermal microvascular EC (HMVEC); experiment: Endothelial cell chemotaxis assay (modified Boyden chamber); assay type: cell-based; details: TSP-1 2 nM; 3 separate experiments
Experimental: Endothelial Cell (EC) chemotaxis assays were performed as described using a modified Boyden chamber with 8 μm gelatin-coated membranes (22). Briefly, confluent flasks of HMVEC were grown in 0.1% MVGS overnight and plated at 3×10^4 cells per well on a gelatinized porous membrane (Osmonics, Minnetonka, Minn., USA). Reagents were added to wells and cells were allowed to migrate at 5% CO2, 37° C. for 4 hours. Membranes were stained and the number of cells migrating was counted. Results were expressed as the percentage of maximum cells migrating towards bFGF (38-113 cells/10 high power fields) minus the number of cells migrating in the absence of bFGF (4-13cells/10 hpf).
HRGP inhibits the anti-chemotactic effect of TSP-1. Because the type I repeat also mediates the interaction of TSP-1 with HRGP, we studied the effect of HRGP on angiogenesis. EC migration towards bFGF was measured using a modified Boyden chamber with an 8 μm gelatin-coated membrane in the presence and absence of TSP-1 (2 nM) and increasing concentrations of HRGP (0-100 nM). Data from 3 separate experiments are expressed as a percentage of migration in the presence of bFGF alone. We measured migration of CD36-expressing microvascular EC towards bFGF. The addition of TSP-1 inhibited bFGF-induced migration of EC (approx. 30%±3% of control 100% value without added TSP-1). […]

CD36 null mice = experiment: In vivo corneal angiogenesis assay, CD36 null mice
Experimental: (§4) FIG. 3. HRGP abrogates the effect of endogenous TSP in the corneal angiogenesis assay. Pellets containing bFGF at various doses with and without HRGP (50 ng) were implanted into the corneas of wild type C57BL/6 (closed symbols) or CD 36 null mice (open symbols), and area of neovascularization was measured after five days. HRGP (--●--) augmented the dose-dependent effect of bFGF (—▪—) in the wild type mice (p=0.0004 by ANOVA). In CD36 null mice, there was an enhanced dose response to bFGF (—□—) (p=0.01), but no effect seen with the addition of HRGP (--◯--). Results represent mean±SE of>6 replicates.
(§5) In vivo corneal angiogenesis assays. Pellets composed of hydron (Hydro Med Sciences, Cranbury, N.J.) and sucralfate (Teva Pharmaceuticals, North Wales, Pa.) were mixed with proteins or growth factors, and were prepared and implanted into the comeas of C57B1/6 mice as described (38). After 5 days, eyes were viewed under a dissecting microscope and photographed with a Sony DKC-1000 digital camera. The area of neovascularization was calculated by measuring vessel length from limbus towards the pellet and number of clock hours of vascularization as described (39, 40). Studies were approved by the Institutional Animal Use Committee.
In fact, the dose response curve of bFGF in wild type mice in the presence of HRGP was similar to that seen with bFGF alone in the CD36 null mice. […]

wild type C57BL/6 mice = experiment: In vivo corneal angiogenesis assay, wild type mice
Experimental: as §4, §5
In a second type of in vivo experiment, hydron/sucralfate pellets containing bFGF, TSP-1, and/or HRGP were implanted in the corneas of C57B1/6 mice. […]

[4] = target: binding of plasminogen to TSP-1 (Homo sapiens, UniProt P00747); details: ELISA; control interaction
Experimental: as §1, §2, §3

[5] = target: T3, binding of radiolabelled HRGP to TSP-1 (Homo sapiens, UniProt P04196); experiment: Ligand blot of radiolabelled HRGP on TSP-1; details: autoradiography; CSVTCG peptide at 50 μM
T3 construct: TSP-1 was purified from human platelet releasate; from tissue; host or cells: HRGP from human plasma; TSP-1 from human platelet releasate
T3 sequence (P04196 19-525): T2 sequence (P04196 19-525)
Experimental: Ligand Blot: TSP-1 was resolved on an SDS-polyacrylamide gel and electrophoretically blotted onto a polyvinylidene difluoride (PVDF) membrane. The membrane was blocked with 150 mM NaCl, 20 mM Tris (TBS) containing 5% BSA. Following three washes with TBS, washes the membranes were cut into strips and incubated with ligand(s) diluted in TBS, 0.1% BSA for 1 hour, washed, and developed by autoradiography.
Ligand blots show binding of radiolabelled HRGP to TSP-1 that had been subjected to SDS-PAGE and transferred to nitrocellulose, then developed by autoradiography.

T1 sequence (P07996 19-1170): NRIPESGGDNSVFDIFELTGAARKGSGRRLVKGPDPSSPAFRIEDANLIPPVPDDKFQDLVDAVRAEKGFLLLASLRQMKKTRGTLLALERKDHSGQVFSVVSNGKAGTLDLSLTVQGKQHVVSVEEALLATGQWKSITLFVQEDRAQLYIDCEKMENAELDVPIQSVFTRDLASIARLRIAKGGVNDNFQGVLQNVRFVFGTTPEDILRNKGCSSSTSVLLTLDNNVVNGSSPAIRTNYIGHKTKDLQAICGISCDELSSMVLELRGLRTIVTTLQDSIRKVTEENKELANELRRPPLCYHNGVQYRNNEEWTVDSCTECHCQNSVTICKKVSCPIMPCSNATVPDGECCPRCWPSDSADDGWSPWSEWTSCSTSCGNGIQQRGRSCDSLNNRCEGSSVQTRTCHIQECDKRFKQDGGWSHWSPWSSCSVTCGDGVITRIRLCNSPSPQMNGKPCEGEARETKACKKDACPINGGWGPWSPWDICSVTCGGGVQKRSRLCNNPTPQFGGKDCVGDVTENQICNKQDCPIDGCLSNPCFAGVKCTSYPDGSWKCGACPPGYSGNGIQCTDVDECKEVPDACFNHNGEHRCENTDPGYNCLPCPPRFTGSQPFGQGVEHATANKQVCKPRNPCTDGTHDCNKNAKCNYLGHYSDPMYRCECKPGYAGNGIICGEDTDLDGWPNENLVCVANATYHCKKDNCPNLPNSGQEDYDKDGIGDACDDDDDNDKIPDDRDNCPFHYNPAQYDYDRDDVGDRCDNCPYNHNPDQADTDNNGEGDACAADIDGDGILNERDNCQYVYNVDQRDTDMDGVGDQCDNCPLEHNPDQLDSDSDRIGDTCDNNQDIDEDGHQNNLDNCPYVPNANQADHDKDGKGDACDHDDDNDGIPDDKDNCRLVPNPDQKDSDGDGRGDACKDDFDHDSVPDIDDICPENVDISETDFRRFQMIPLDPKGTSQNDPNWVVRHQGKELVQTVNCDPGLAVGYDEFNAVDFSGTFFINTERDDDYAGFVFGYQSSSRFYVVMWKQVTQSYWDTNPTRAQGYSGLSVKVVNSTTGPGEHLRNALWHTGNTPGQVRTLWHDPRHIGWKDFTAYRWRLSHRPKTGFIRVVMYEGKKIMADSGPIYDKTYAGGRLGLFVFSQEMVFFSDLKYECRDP
binding of plasminogen to TSP-1, sequence (P00747 20-810 limits assumed): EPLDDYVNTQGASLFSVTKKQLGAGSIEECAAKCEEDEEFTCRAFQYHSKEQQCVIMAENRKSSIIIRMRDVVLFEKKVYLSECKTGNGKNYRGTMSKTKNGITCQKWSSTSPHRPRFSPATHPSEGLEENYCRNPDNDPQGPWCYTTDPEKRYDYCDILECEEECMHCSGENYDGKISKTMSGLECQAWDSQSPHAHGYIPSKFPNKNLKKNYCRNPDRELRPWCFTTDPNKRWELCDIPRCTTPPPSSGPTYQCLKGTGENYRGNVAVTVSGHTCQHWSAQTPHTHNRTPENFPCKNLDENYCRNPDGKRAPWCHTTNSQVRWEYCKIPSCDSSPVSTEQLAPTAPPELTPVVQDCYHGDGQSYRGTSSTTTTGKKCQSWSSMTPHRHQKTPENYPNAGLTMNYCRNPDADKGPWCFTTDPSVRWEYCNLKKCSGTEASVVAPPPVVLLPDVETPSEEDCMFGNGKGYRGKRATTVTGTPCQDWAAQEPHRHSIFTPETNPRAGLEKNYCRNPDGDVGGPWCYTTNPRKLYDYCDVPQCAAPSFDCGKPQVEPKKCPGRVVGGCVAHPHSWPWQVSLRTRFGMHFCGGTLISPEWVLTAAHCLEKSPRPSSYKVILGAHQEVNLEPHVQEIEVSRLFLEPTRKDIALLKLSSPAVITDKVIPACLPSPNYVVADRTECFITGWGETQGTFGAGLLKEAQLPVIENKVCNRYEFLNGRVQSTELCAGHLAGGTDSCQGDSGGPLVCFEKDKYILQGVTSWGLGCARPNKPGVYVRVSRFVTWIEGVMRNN

## CD36 FP93-120: CD36-glutathione-S-transferase (GST) fusion protein shown to bind TSP-1 (YRVRFLAKENVTQDAEDNTVSFLQPNGA; left off: a dimerising Fc or GST)
[1]
  inhibition of 125I-TSP-1 binding to immobilized HRGP: inhibited

## GST: glutathione-S-transferase alone, control
[1]
  inhibition of 125I-TSP-1 binding to immobilized HRGP: had no effect

## RGDS: control TSP-1 peptide
Binding of HRGP to TSP-1
  inhibition of binding of HRGP to immobilized TSP-1: not and had no effect

## TSP-1: 450 kDa homotrimeric adhesive glycoprotein purified from human platelet releasate; inhibitor of angiogenesis
C57B1/6 mice; TSP-1 added to bFGF in Matrigel, 10 days
  blood vessels/mm^2, % of that seen with bFGF: 14±8%
[2]; TSP-1 2 nM, bFGF 2 ng/ml, 0.2% serum
  effect on bFGF-induced tube formation by EC: inhibited
[3]
  EC migration towards bFGF, percentage of control without added TSP-1: approx. 30%±3%
CD36 null mice; CD36 null mice
  inhibition of bFGF-induced angiogenesis: did not inhibit

## TVSGCC: scrambled peptide control
Binding of HRGP to TSP-1
  inhibition of binding of HRGP to immobilized TSP-1: not and had no effect

## bFGF: Recombinant human basic fibroblast growth factor
C57B1/6 mice; plugs harvested after 10 days, representative images of 4 experiments
  angiogenesis in Matrigel plug (histology): stimulated angiogenesis
[2]; agent alone, low serum
  induction of tube formation: induced tube formation
CD36 null mice; CD36 −/− mouse, corneal pellet, 5 days
  Area of Neovascularization (mm^2) ± SE: 2.10 ± 0.14 mm^2
Wild type C57BL/6 mice; Wild type mouse, corneal pellet, 5 days
  Area of Neovascularization (mm^2) ± SE: 2.35 ± 0.10 mm^2
Wild type C57BL/6 mice; pellets: bFGF 50 ng, TSP-1 200 ng, HRGP 100 ng, after 5 days
  eyes with vigorous outgrowth of blood vessels (angiogenesis): 13/13

## cysteine-serine-valine-threonine-cysteine-glycine [CSVTCG]
Binding of HRGP to TSP-1; concentration-dependent inhibition
  peptide concentration at which inhibition of HRGP binding to TSP-1 reached maximum: 50 µM
Binding of HRGP to TSP-1
  inhibition of binding of HRGP to immobilized TSP-1: inhibited
[4]
  inhibition of binding of plasminogen to TSP-1: not inhibited
[5]
  binding of radiolabelled HRGP to TSP-1 resolved on SDS-PAGE and blotted: completely abolished
